11 molecules from ChEMBL document CHEMBL1146874, “Metabolism investigation leading to novel drug design 2: orally active prostacyclin mimetics. Part 5” (Bioorg Med Chem Lett, 2006) can be followed below.

pIC50: −log10 of the molar value.

The nature of series [1]: Intrinsic clearance in rat liver microsomes after 60 mins. Format: ADME, Microsome. Background: Liver microsomes are a subcellular fraction often used to study metabolism.
Series [2] in a line: Bioavailability in rat at 10 mg/kg, […]. It counts as ADME, organism-based. The settings on record: in vivo.
A short description of series [3]: Bioavailability in human at 12.5 ug, po. It counts as ADME, organism-based. The settings on record: in vivo.
Series [4] is described as follows: Cmax in human at 12.5 ug, po. Format: ADME, organism-based. Details: dose 12.5 ug, route oral. The settings on record: in vivo.
Series [5] is described as follows: Cmax in rat at 10 mg/kg, po. Format: ADME, organism-based. The settings on record: in vivo. Details: dose 10 mg/kg, route oral.
The nature of series [6]: AUC in human at 12.5 ug, po. Format: ADME, organism-based. The settings on record: plasma.
The test system of series [7] is Rattus norvegicus. The series is described as follows: AUC in rat at 10 mg/kg, po. Details: dose 10 mg/kg, route oral. Particulars: in vivo. Format: ADME, organism-based, Plasma.
The species entered for series [8] is Homo sapiens. The series is described as follows: Inhibition of ADP-induced platelet aggregation in human platelet rich plasma. It counts as functional, organism-based.
Series [9] can be described thus: Half life in human at 12.5 ug, po. It counts as ADME, organism-based. The settings on record: in vivo.
The nature of series [10]: Blood to plasma ratio in human at 12.5 ug, po. Particulars: read-out: BPR. It counts as ADME, organism-based.
Series [11] is filed under the species Rattus norvegicus. In words: Inhibition of ADP-induced platelet aggregation in rat platelet rich plasma. Format: functional, organism-based.
Series [12] can be described thus: Beta half life in rat at 10 mg/kg, iv. It counts as ADME, organism-based. Details: dose 10 mg/kg, route intravenous. Particulars: in vivo.
Series [13] in a line: Total clearance in rat at 10 mg/kg, iv. It counts as ADME, organism-based. Details: dose 10 mg/kg, route intravenous. The settings on record: in vivo.
Series [14] has as its system Rattus norvegicus. The series is described as follows: Stability in orally dosed rat measured as glucuronide of M2 level in bile. Particulars: in vivo, po. It counts as ADME, organism-based.
Series [15] has as its system Rattus norvegicus. In words: Stability in orally dosed rat measured as M2 level in bile. Particulars: in vivo, po. Format: ADME, organism-based.

In the case of `O=C(O)COc1cccc2c1CC[C@](O)(COC(=O)N(c1ccccc1)c1ccccc1)C2`, the CLint scaled (in general, the capacity of the preparation to metabolise the compound, expressed as a volume cleared per time) in series [1] was found to be 1.91 L/h/kg. Also, the figures for the bioavailability in [2] and in series [3] were 9.6% and 55%, respectively. In addition, the figures for the Cmax in [4] and in series [5] were 0.000157 µg/mL and 0.282 µg/mL, respectively. Moreover, the AUC – broadly, the area under the concentration-time curve, a measure of exposure – in [6] worked out at 0.000327 µg·h/mL; in [7], 0.601 µg·h/mL. For the same molecule, in series [8], the pIC50 (in general, the IC50 on a negative log10 scale, so that one unit is a factor of ten) was 7.74. The half-life (commonly the time needed for the level to fall by half in the phase considered) in series [9] is 1.5 h. For the same molecule, the blood plasma ratio in series [10] came to 0.57.
Molecule `O=C(O)COc1cccc2c1CC[C@](O)(COC(=O)N(c1ccc(F)cc1)c1ccc(F)cc1)C2` yielded a CLint scaled in series [1] of 0.276 L/h/kg. Moreover, the bioavailability (usually dose-corrected exposure relative to a reference, in per cent) in [2] is 29.5%. Moreover, the pIC50 in [11] was less than 5.00; in series [8], 7.23. This molecule gave a half-life in series [12] of 3 h. Also, in series [5], the highest level (Cmax) was 0.575 µg/mL. Besides, the clearance (commonly the rate of elimination divided by the concentration) in [13] worked out at 1.82 L/h/kg. In [7], the AUC was determined as 1.61 µg·h/mL.
In series [1], `O=C(O)COc1cccc2c1CC[C@](O)(COC(=O)N(c1ccccc1F)c1ccccc1F)C2` displayed a CLint scaled of 2.69 L/h/kg. In series [8], this molecule showed a pIC50 of 7.20.
With `O=C(O)COc1cccc2c1CC[C@](O)(COC(=O)N(c1ccccc1)c1ccc(F)cc1)C2`, in [1], the CLint scaled was found to be 0.618 L/h/kg. The bioavailability in series [2] came to 19.2%. Further, the pIC50 in series [11] is 5.34; in [8], 7.89. In series [12], this molecule had a half-life of 1.6 h. Besides, the Cmax (commonly the peak of the concentration-time curve) in series [5] worked out at 0.434 µg/mL. The molecule also gave a clearance in series [13] of 1.97 L/h/kg. The molecule further gave an AUC in [7] of 0.961 µg·h/mL.
Take `O=C(O)COc1cccc2c1CC[C@](O)(COC(=O)N(c1ccccc1)c1ccc(Br)cc1)C2`: in series [1], the CLint scaled came to 0.738 L/h/kg. Moreover, the pIC50 is 5.19 in series [11] and 7.31 in [8].
`O=C(O)COc1cccc2c1C(O)C[C@](O)(COC(=O)N(c1ccccc1)c1ccccc1)C2` (stereo partly drawn): the pIC50 is less than 5.00 in series [11] and 6.70 in series [8].
For the molecule `O=C(O)COc1cccc2c1CC[C@](O)(COC(=O)N(c1ccc(F)cc1)c1ccccc1F)C2`, in series [1], the CLint scaled was found to be 0.708 L/h/kg. Moreover, the values for the pIC50 in series [11] and in series [8] were 5.29 and 7.66, respectively.
The like results for `O=C(O)COc1cccc2c1CC[C@](O)(COC(=O)N(c1ccc(F)cc1)c1cccc(F)c1)C2` were, in that order, 0.702 L/h/kg, less than 5.00 and 7.60.
Turning to `O=C(O)COc1cccc2c1CC[C@](O)(COC(=O)N(c1ccccc1)c1ccc(O)cc1)C2`, the figures for the pIC50 in series [11] and in series [8] were 5.60 and 7.46, respectively. Moreover, the Stability is on record as 33% in series [14] and 12% in series [15].
For `O=C(O)COc1cccc2c1CC[C@](O)(COC(=O)N(c1cccc(F)c1)c1cccc(F)c1)C2`, the CLint scaled in [1] stood at 0.81 L/h/kg. Further, the pIC50 is less than 5.00 in [11] and 7.85 in series [8].
With `O=C(O)COc1cccc2c1CC[C@](O)(COC(=O)N(c1ccccc1)c1ccccc1)[C@H]2O`, the figures for the pIC50 in series [11] and in [8] were less than 5.00 and 5.89, respectively.
